Laboratory results as given in patent US11203563B2, “Preparation of zinc linolenate, and application of zinc linolenate in preparing anti-helicobacter pylori drug” (NANJING MEDICAL UNIVERSITY, priority 2018, dated 2021).

Experiments:
Bacillus cereus = assay: MIC by microdilution method, non-Helicobacter pylori bacteria; format: cell-based; set-up: key: +: Bacterial growth; −: No bacterial growth; conditions: 72 h
Description: (§1) 2.2 Detection of minimum inhibitory concentration (MIC, 100 µL system) of zinc linolenate for non-Helicobacter pylori bacteria by microdilution method
(§2) (1) Zinc linolenate (2 mg/mL) is prepared.
(§3) (3) Bacterial solution preparation: the non-Helicobacter pylori grown in a log phase on a solid plate is taken to make a bacterial suspension with a BHI culture medium, the absorbance (OD600) is adjusted to 0.3 (1×10^8 CFU/mL), and the bacterial suspension is diluted 100 times to 1×10^6 CFU/mL for use.
(§4) (4) Inoculation of bacterial solution: 10 μL of bacterial solution above is taken and added to the 1-8th wells (the concentration of the bacterial solution per well is about 1.0×10^5 CFU/mL). Culture is performed for 72 h to judge the result. The drug concentrations of the first-seventh wells are 128, 64, 32, 16, 8, 4, and 2 μg/mL, respectively.
(§5) The experiment only makes sense when the bacteria obviously grow in the 8th well, i.e. the positive control well (without antibiotics). When a single drift occurs in the microdilution method, the maximum drug concentration that inhibits bacterial growth should be recorded. If there are multiple drifts, the results should not be reported and the experiment should be repeated. The experiment is repeated 3 times for each drug.

Bacillus subtilis (168) = assay: as above; format: cell-based; set-up: key: +: Bacterial growth; −: No bacterial growth; conditions: 72 h
Description: as §1, §2, §3, §4, §5

[1] = test system: Enterobacter cloacae (ATCC13047); assay: as above; format: cell-based; set-up: key: +: Bacterial growth; −: No bacterial growth; conditions: 72 h
Description: as §1, §2, §3, §4, §5

[2] = test system: Escherichia coli (MG1655); assay: as above; format: cell-based; set-up: key: +: Bacterial growth; −: No bacterial growth; conditions: 72 h
Description: as §1, §2, §3, §4, §5

[3] = test system: Haemophilus influenzae (ATCC49766); assay: as above; format: cell-based; set-up: key: +: Bacterial growth; −: No bacterial growth; conditions: 72 h
Description: as §1, §2, §3, §4, §5

Listeria = assay: as above; format: cell-based; set-up: key: +: Bacterial growth; −: No bacterial growth; conditions: 72 h
Description: as §1, §2, §3, §4, §5

[4] = test system: Moraxella catarrhalis (ATCC25238); assay: as above; format: cell-based; set-up: key: +: Bacterial growth; −: No bacterial growth; conditions: 72 h
Description: as §1, §2, §3, §4, §5

[5] = test system: Neisseria gonorrhoeae (ATCC19424); assay: as above; format: cell-based; set-up: key: +: Bacterial growth; −: No bacterial growth; conditions: 72 h
Description: as §1, §2, §3, §4, §5

[6] = test system: Staphylococcus aureus (ATCC6538); assay: as above; format: cell-based; set-up: key: +: Bacterial growth; −: No bacterial growth; conditions: 72 h
Description: as §1, §2, §3, §4, §5

[7] = test system: Stenotrophomonas maltophilia; assay: as above; format: cell-based; set-up: key: +: Bacterial growth; −: No bacterial growth; conditions: 72 h
Description: as §1, §2, §3, §4, §5

[8] = test system: Streptococcus pneumoniae (ATCC49619); assay: as above; format: cell-based; set-up: key: +: Bacterial growth; −: No bacterial growth; conditions: 72 h
Description: as §1, §2, §3, §4, §5

[9] = Animal toxicity, 10 times the therapeutic dose
Description: (1) Preparation of mice: 20 8-week-old C57BL/6 mice are randomly divided into an administration group containing 10 mice and a negative control group containing 10 mice.
(2) Intragastric administration: administration is performed with 10 times the therapeutic dose of zinc linolenate, that is, administration is performed according to 240 mg/kg per mouse, once a day for 3 consecutive days. The negative control group is administered with a PBS solution, and the number of times and dose are same as those in the administration group.
(3) Weighing of weight: the weight of mice is weighed 1 day before administration for 7 consecutive days.
(4) Efficacy test: the mice in the infection group are weighed 3 days after the drug is stopped, and the average weight is calculated. Blood is taken from the eyeballs, and the mice are sacrificed by cervical dislocation. Stomach, kidney, liver and spleen tissues are taken, pathologically sectioned and HE stained, and serum is tested for liver and kidney functions.

CC/C=C\C/C=C\C/C=C\CCCCCCCC(=O)[O-].CC/C=C\C/C=C\C/C=C\CCCCCCCC(=O)[O-].[Zn+2] [zinc linolenate]
Bacterial growth (Bacillus cereus; zinc linolenate 2 μg/ml): +
Bacterial growth (Bacillus cereus; zinc linolenate 4 μg/ml): +
Bacterial growth (Bacillus cereus; zinc linolenate 8 μg/ml): +
Bacterial growth (Bacillus cereus; zinc linolenate 16 μg/ml): +
Bacterial growth (Bacillus cereus; zinc linolenate 32 μg/ml): +
Bacterial growth (Bacillus cereus; zinc linolenate 64 μg/ml): +
Bacterial growth (Bacillus cereus; zinc linolenate 128 μg/ml): +
Bacterial growth (Bacillus subtilis (168); zinc linolenate 2 μg/ml): +
Bacterial growth (Bacillus subtilis (168); zinc linolenate 4 μg/ml): +
Bacterial growth (Bacillus subtilis (168); zinc linolenate 8 μg/ml): +
Bacterial growth (Bacillus subtilis (168); zinc linolenate 16 μg/ml): +
Bacterial growth (Bacillus subtilis (168); zinc linolenate 32 μg/ml): +
Bacterial growth (Bacillus subtilis (168); zinc linolenate 64 μg/ml): +
Bacterial growth (Bacillus subtilis (168); zinc linolenate 128 μg/ml): +
Bacterial growth ([1]; zinc linolenate 2 μg/ml): +
Bacterial growth ([1]; zinc linolenate 4 μg/ml): +
Bacterial growth ([1]; zinc linolenate 8 μg/ml): +
Bacterial growth ([1]; zinc linolenate 16 μg/ml): +
Bacterial growth ([1]; zinc linolenate 32 μg/ml): +
Bacterial growth ([1]; zinc linolenate 64 μg/ml): +
Bacterial growth ([1]; zinc linolenate 128 μg/ml): +
Bacterial growth ([2]; zinc linolenate 2 μg/ml): +
Bacterial growth ([2]; zinc linolenate 4 μg/ml): +
Bacterial growth ([2]; zinc linolenate 8 μg/ml): +
Bacterial growth ([2]; zinc linolenate 16 μg/ml): +
Bacterial growth ([2]; zinc linolenate 32 μg/ml): +
Bacterial growth ([2]; zinc linolenate 64 μg/ml): +
Bacterial growth ([2]; zinc linolenate 128 μg/ml): −
Bacterial growth ([3]; zinc linolenate 2 μg/ml): +
Bacterial growth ([3]; zinc linolenate 4 μg/ml): +
Bacterial growth ([3]; zinc linolenate 8 μg/ml): +
Bacterial growth ([3]; zinc linolenate 16 μg/ml): +
Bacterial growth ([3]; zinc linolenate 32 μg/ml): +
Bacterial growth ([3]; zinc linolenate 64 μg/ml): +
Bacterial growth ([3]; zinc linolenate 128 μg/ml): +
Bacterial growth (Listeria; zinc linolenate 2 μg/ml): +
Bacterial growth (Listeria; zinc linolenate 4 μg/ml): +
Bacterial growth (Listeria; zinc linolenate 8 μg/ml): +
Bacterial growth (Listeria; zinc linolenate 16 μg/ml): +
Bacterial growth (Listeria; zinc linolenate 32 μg/ml): +
Bacterial growth (Listeria; zinc linolenate 64 μg/ml): +
Bacterial growth (Listeria; zinc linolenate 128 μg/ml): +
Bacterial growth ([4]; zinc linolenate 2 μg/ml): +
Bacterial growth ([4]; zinc linolenate 4 μg/ml): +
Bacterial growth ([4]; zinc linolenate 8 μg/ml): +
Bacterial growth ([4]; zinc linolenate 16 μg/ml): +
Bacterial growth ([4]; zinc linolenate 32 μg/ml): +
Bacterial growth ([4]; zinc linolenate 64 μg/ml): +
Bacterial growth ([4]; zinc linolenate 128 μg/ml): +
Bacterial growth ([5]; zinc linolenate 2 μg/ml): +
Bacterial growth ([5]; zinc linolenate 4 μg/ml): +
Bacterial growth ([5]; zinc linolenate 8 μg/ml): +
Bacterial growth ([5]; zinc linolenate 16 μg/ml): +
Bacterial growth ([5]; zinc linolenate 32 μg/ml): +
Bacterial growth ([5]; zinc linolenate 64 μg/ml): +
Bacterial growth ([5]; zinc linolenate 128 μg/ml): +
Bacterial growth ([6]; zinc linolenate 2 μg/ml): +
Bacterial growth ([6]; zinc linolenate 4 μg/ml): +
Bacterial growth ([6]; zinc linolenate 8 μg/ml): +
Bacterial growth ([6]; zinc linolenate 16 μg/ml): +
Bacterial growth ([6]; zinc linolenate 32 μg/ml): +
Bacterial growth ([6]; zinc linolenate 64 μg/ml): +
Bacterial growth ([6]; zinc linolenate 128 μg/ml): +
Bacterial growth ([7]; zinc linolenate 2 μg/ml): +
Bacterial growth ([7]; zinc linolenate 4 μg/ml): +
Bacterial growth ([7]; zinc linolenate 8 μg/ml): +
Bacterial growth ([7]; zinc linolenate 16 μg/ml): +
Bacterial growth ([7]; zinc linolenate 32 μg/ml): +
Bacterial growth ([7]; zinc linolenate 64 μg/ml): +
Bacterial growth ([7]; zinc linolenate 128 μg/ml): −
Bacterial growth ([8]; zinc linolenate 2 μg/ml): +
Bacterial growth ([8]; zinc linolenate 4 μg/ml): +
Bacterial growth ([8]; zinc linolenate 8 μg/ml): +
Bacterial growth ([8]; zinc linolenate 16 μg/ml): +
Bacterial growth ([8]; zinc linolenate 32 μg/ml): +
Bacterial growth ([8]; zinc linolenate 64 μg/ml): +
Bacterial growth ([8]; zinc linolenate 128 μg/ml): +
weight of the mice ([9]; 240 mg/kg (10 times the therapeutic dose), intragastric, once a day for 3 days, weighed 7 consecutive days): does not change significantly
Alanine aminotransferase ([9]; mouse, in vivo, 240 mg/kg): 23.33 U/L
Aspartate aminotransferase ([9]; mouse, in vivo, 240 mg/kg): 138.33 U/L
Blood urea nitrogen ([9]; mouse, in vivo, 240 mg/kg): 11.90 mmol/L
Creatinine ([9]; mouse, in vivo, 240 mg/kg): 15.00 µmol/L
